What was measured:
[1] = Displacement of [Phe13, [125I]Tyr19]-MCH from human MCHR1 receptor E4Q/A5T mutant expressed in HEK 293 cell membranes by scintillation counter; conditions: hek293
[2] = biological target: T1, Melanin-concentrating hormone receptor 1 (Homo sapiens, UniProt Q99705); test: Displacement of [125I]-MCH from human MCHR1 receptor expressed in CHO-K1 cell membranes after 2 hrs by scintillation proximity assay
[3] = system: Rattus norvegicus; test: Antiobesity activity in obese rat assessed as reduction in body weight at 30 mg/kg, po measured on day 29; type: functional; set-up: scale not given: the % may be the effect or the level left
[4] = system: Rattus norvegicus; test: Antiobesity activity in obese rat assessed as reduction in body weight at 3 mg/kg, po measured on day 29; type: functional; set-up: scale not given: the % may be the effect or the level left
[5] = biological target: T1, Melanin-concentrating hormone receptor 1; test: Binding affinity to MCHR1 receptor by cell-based assay

T1 sequence (Q99705 whole entry): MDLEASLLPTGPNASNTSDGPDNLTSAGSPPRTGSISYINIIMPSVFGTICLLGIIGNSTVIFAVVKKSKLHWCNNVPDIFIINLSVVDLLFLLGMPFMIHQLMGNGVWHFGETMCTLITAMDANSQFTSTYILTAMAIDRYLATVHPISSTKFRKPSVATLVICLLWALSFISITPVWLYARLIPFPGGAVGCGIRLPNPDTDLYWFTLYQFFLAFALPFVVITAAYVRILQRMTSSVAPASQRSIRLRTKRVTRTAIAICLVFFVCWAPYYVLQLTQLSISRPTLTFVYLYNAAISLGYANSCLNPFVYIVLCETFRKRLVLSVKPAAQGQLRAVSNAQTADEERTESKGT

COc1cc(-n2cnc3cc(-c4ccc(Cl)cc4)sc3c2=O)ccc1OC[C@H](O)C1CC1
Ki [1]: 18 nM

CN(C)CC1CCc2cc(NC(=O)Nc3ccc(Oc4ccccc4)cc3)ccc2C1 (centres undefined)
IC50 [2]: 10 nM

COc1cc(-n2cnc3cc(-c4ccc(Cl)cc4)sc3c2=O)ccc1OCC1(OC(=O)CN)CC(F)(F)C1
Activity [3]: 10.2%
Activity [4]: 10.2%

COc1cc(-n2cnc3cc(-c4ccc(Cl)cc4)sc3c2=O)ccc1OC[C@H](OP(=O)(O)O)C1CC1 [BMS-830216]
Activity [3]: 7.8%
Activity [4]: 7.8%

COc1cc(-n2cnc3cc(-c4ccc(Cl)cc4)sc3c2=O)ccc1OCC1(O)CC(F)(F)C1
Ki [1]: 10 nM

COc1ccc(/C=C/C(=O)Nc2ccc3nc(N4CCOCC4)cc(C)c3c2)cc1
Activity [5]: 50 nM

Cc1ccc(/C=C/C(=O)Nc2ccc3nc(N4CCN(C)CC4)cc(C)c3c2)cc1
Activity [5]: 50 nM

Source: ChEMBL document CHEMBL2146433, “Melanin concentrating hormone receptor 1 (MCHR1) antagonists-Still a viable approach for obesity treatment?” (Bioorg Med Chem Lett, 2012)
